# Source: patent publication US11440922B2, “Heterocyclylmethylidene derivatives and their use as modulators of mGluR5 receptors” (Recordati Industria Chimica e Farmaceutica S.p.A., priority 2017, dated 2022)
# Key:
# [1] = biological target: human mGluR5 receptor (Homo sapiens (Human), UniProt P41594); assay: Radioligand binding assay at cloned human mGluR5 receptor subtype ([3H]MPEP); conditions: 4 nM [3H]MPEP, CHO T-REx h-mGluR5 cells, 60 min at 25° C.; read-out: mGlu5 Ki
# From the text: (§1) Cell lines stably transfected were generated using inducible expression vectors encoding human mGlu5 receptor using the Tetracycline-Regulated Expression system (T-REx™ system, Invitrogen, Life Technologies). Human mGluR5 open reading frame (ORF), comprehensive of the stop codon, were cloned into the pcDNA4/TO/myc-His™ A vector, carrying the TetO2. The insertion site was HindIII-PstI for mGluR5 receptors. The obtained constructs were then transfected into the T-REx CHO™ cell line using the FuGENE protocol (Roche); the CHO T-REx™ cell line stably expresses the Tet repressor (from the pcDNA6/TR plasmid) under the selection of blasticidin, 10 μg/ml. Stable clones were obtained selecting with zeocin 1 mg/ml and maintaining in ULTRA CHO medium (LONZA) supplemented with dialyzed FBS, zeocin, blasticidine, at 37° C., in an atmosphere of 5% CO2. The expression of h-mGluR5 receptors was de-repressed with 1 μg/ml tetracycline for 18 h before binding experimentation, while the expression of h-mGluR5 receptors was derepressed respectively with 3 ng/ml and 10 ng/ml tetracycline for 18 h before calcium fluorescence experimentation.
# Radioligand Binding Assay at Cloned Human mGluR5 Receptor Subtype
# Affinity at transmembrane glutamate metabotropic cloned human mGluR5 receptor was evaluated according to the methods of Anderson (Anderson et al., J Pharmacol. Exp. Ther., (2002), Vol. 303(3), pp. 1044-51), with some modifications. Human cloned mGluR5 was obtained by re-suspending CHO T-REx h-mGluR5 cells (50 μg/well) in 20 mM HEPES, 2 mM MgCl2, 2 mM CaCl2, pH 7.4, that then were incubated in a final volume of 1 ml for 60 min at 25° C. with 4 nM [^3H]MPEP in the absence or presence of competing drugs. Non-specific binding was determined in the presence of 10 μM MPEP. The incubation was stopped by addition of cold Tris buffer pH 7.4 and rapid filtration through 0.2% polyethyleneimine pretreated Filtermat 1204-401 (Perkin Elmer) filters. The filters were then washed with cold buffer and the radioactivity retained on the filters was counted by liquid scintillation spectrometry (Betaplate 1204 BS-Wallac).
# (§2) The inhibition curves of the tested compounds at cloned mGluR5 subtypes were determined by nonlinear regression analysis using software Prism 4.0 (Graphpad, San Diego, Calif.). The IC50 values and pseudo-Hill slope coefficients were estimated by the program. The values for the inhibition constant, Ki, were calculated according to the equation Ki=IC50/(1+[L]/Kd), where [L] is the concentration of radioligand and Kd is the equilibrium dissociation constant of the radioligand-receptor complex (Cheng et al., Biochem. Pharmacol. (1973), Vol. 22, pp. 3099-3108).
# [2] = biological target: T1, human mGlu5 receptor (Homo sapiens (Human), UniProt P41594); assay: Calcium fluorescence measurements, potentiation of mGlu5 activation (positive allosteric modulator activity); assay type: cell-based; conditions: EC20 of the agonist (quisqualate or glutamate), compounds applied 10 minutes before agonist
# T1 sequence (P41594 21-1212): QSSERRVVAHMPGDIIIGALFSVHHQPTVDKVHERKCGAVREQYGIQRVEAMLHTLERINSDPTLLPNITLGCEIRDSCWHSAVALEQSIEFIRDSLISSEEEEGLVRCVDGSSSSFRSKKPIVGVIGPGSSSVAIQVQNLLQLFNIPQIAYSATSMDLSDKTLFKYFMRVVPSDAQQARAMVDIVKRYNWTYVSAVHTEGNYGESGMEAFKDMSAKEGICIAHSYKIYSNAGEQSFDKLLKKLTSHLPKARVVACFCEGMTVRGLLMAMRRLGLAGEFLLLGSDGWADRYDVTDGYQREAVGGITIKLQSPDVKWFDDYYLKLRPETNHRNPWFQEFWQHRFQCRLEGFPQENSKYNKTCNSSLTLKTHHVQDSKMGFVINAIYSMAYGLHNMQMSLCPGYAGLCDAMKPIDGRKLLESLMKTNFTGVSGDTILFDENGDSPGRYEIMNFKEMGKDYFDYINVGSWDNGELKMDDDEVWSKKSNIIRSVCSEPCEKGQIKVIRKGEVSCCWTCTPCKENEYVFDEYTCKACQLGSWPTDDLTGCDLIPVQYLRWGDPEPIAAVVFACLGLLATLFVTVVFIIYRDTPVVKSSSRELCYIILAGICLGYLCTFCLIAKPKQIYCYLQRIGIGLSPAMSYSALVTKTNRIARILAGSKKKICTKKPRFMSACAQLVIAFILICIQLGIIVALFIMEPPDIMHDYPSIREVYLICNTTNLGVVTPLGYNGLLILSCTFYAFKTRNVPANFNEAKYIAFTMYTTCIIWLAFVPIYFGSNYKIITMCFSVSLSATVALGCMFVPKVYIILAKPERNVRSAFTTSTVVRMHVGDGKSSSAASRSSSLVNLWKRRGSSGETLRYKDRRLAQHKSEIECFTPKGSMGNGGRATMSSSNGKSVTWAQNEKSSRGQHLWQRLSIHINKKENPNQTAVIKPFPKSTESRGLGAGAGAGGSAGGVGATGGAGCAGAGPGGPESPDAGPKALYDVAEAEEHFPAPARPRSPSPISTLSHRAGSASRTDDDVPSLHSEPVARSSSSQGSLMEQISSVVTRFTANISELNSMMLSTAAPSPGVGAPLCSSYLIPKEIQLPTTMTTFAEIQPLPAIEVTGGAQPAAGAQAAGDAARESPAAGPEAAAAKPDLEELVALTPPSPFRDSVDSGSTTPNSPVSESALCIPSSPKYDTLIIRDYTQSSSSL
# From the text: as §1
# (§3) Cells were seeded into black-walled, clear-bottom, 96-well plates at a density of 80000 cell/well, in RPMI (without Phenol Red, without L-glutamine; Gibco LifeTechnologies, CA) supplemented with 10% dialyzed FBS. Following 18-h incubation with tetracycline, the cells were loaded with […] Ca^2+-sensitive fluorescent dye Fluo-4/AM (Molecular Probes) in Hanks' balanced saline solution (HBSS, Gibco LifeTechnologies, CA) with […] Hepes (Sigma) and 2.5 mM probenecid (Sigma), for 1 h at 37° C. The cells were washed three times with HBSS to remove extracellular dye. Fluorescence signals were measured by using the fluorescence microplate reader Flexstation III (Molecular Devices) at sampling intervals of 1.5 s for 60 s.
# (§4) The antagonist potency was determined using the EC80 of the quisqualate used as agonist and the potentiation of mGlu5 activation was determined using the EC20 of the agonist (quisqualate or glutamate). The compounds were applied 10 minutes before the application of the agonist.
# (§5) The negative allosteric modulator activity (expressed as IC50) and the positive allosteric modulator activity (expressed as EC50) of the compounds of the invention for the mGlu5 receptors is between 0.1 and 1000 nM.
# [3] = biological target: T1, human mGlu5 receptor; assay: Fold shift of agonist curve determination; assay type: cell-based; conditions: ratio of EC50 agonist (quisqualate or glutamate) curves in presence and in absence of test compound; compound at 1 μM
# From the text: as §1, §3
# The PAM potency was evaluated by performing an agonist concentration response curve in the presence of the compounds. The compounds at fixed concentration (0.01 or 0.1 or 1 μM) were applied 10 minutes before the incubation of the agonist (quisqualate or glutamate) dose-response curve. The fold shift was determined as ratio of EC50 agonist curves in presence and in absence of test compound. For instance, and in particular compound 34 has a fold shift of 2.7.
# [4] = biological target: T1, human mGlu5 receptor; assay: Calcium fluorescence measurements, antagonist potency (negative allosteric modulator activity); assay type: cell-based; conditions: EC80 of quisqualate as agonist, compounds applied 10 minutes before agonist
# From the text: as §1, §3, §4, §5, §2
# Sequence of human mGluR5 receptor (P41594 21-1212): as above
Ki [1],EC50 [2],mGlu5 Fold Shift @1 μM [3],IC50 [4],Structure (SMILES)
2.42 nM,23 nM,2.7,,"CCn1nc(C)c(C(=O)N2CC/C(=C\C#Cc3cccc(Cl)c3)C(C)(C)C2)n1 [Example 167, {(4E)-4-[3-(3-chlorophenyl)prop-2-yn-1-ylidene]-3,3-dimethylpiperidin-1-yl}(2-ethyl-5-methyl-2H-1,2,3-triazol-4-yl)methanone]"
,87.7 nM,2.2,,"COc1cccc(C(=O)N2CC/C(=C\C#Cc3cccc(C#N)c3)C(C)(C)C2)c1 [Example 196, 3-{(3E)-3-[1-(3-methoxybenzoyl)-3,3-dimethylpiperidin-4-ylidene]prop-1-yn-1-yl}benzonitrile]"
7.39 nM,64.5 nM,2.8,,"Cc1cccc(C(=O)N2CC/C(=C\C#Cc3cccc(Cl)c3)C(C)(C)C2)c1 [Example 43, {(4E)-4-[3-(3-chlorophenyl)prop-2-yn-1-ylidene]-3,3-dimethylpiperidin-1-yl}(3-methylphenyl)methanone]"
2.12 nM,,,37.2 nM,"CCOC(=O)N1CC/C(=C\C#Cc2cccc(CC#N)c2)C(C)(C)C1 [Example 28, ethyl (4E)-4-{3-[3-(cyanomethyl)phenyl]prop-2-yn-1-ylidene}-3,3-dimethylpiperidine-1-carboxylate]"
1.82 nM,165 nM,3.5,,"Cc1cccc(C(=O)N2CC/C(=C\C#Cc3cccc(Cl)c3)C(C)(C)C2)n1 [Example 128, {(4E)-4-[3-(3-chlorophenyl)prop-2-yn-1-ylidene]-3,3-dimethylpiperidin-1-yl}(6-methylpyridin-2-yl)methanone]"
1.91 nM,88.2 nM,4.5,,"O=C(c1cccc(Cl)c1)N1CC/C(=C\C#Cc2cccc(Cl)c2)C(F)(F)C1 [Example 201, (3-chlorophenyl){(4E)-4-[3-(3-chlorophenyl)prop-2-yn-1-ylidene]-3,3-difluoropiperidin-1-yl}methanone]"
323 nM,37.4 nM,3.79,,"Cc1cc(C(=O)N2CC/C(=C\C#Cc3cccc(CO)c3)C(C)(C)C2)c(C)o1 [Example 46, (2,5-dimethylfuran-3-yl)[(4E)-4-{3-[3-(hydroxymethyl)phenyl]prop-2-yn-1-ylidene}-3,3-dimethylpiperidin-1-yl]methanone]"
0.89 nM,,,,"CCOC(=O)N1CC/C(=C\C#Cc2cc(F)ccc2F)C(C)(C)C1 [Example 19, ethyl (4E)-4-[3-(2,5-difluorophenyl)prop-2-yn-1-ylidene]-3,3-dimethylpiperidine-1-carboxylate]"
932 nM,121 nM,7.66,,"CC1(C)CN(C(=O)c2cccc(Cl)c2)CC/C1=C\c1cc(-c2cccc(Cl)c2)[nH]n1 [Example 107, (3-chlorophenyl)[(4E)-4-{[5-(3-chlorophenyl)-1H-pyrazol-3-yl]methylidene}-3,3-dimethylpiperidin-1-yl]methanone]"
,,1.35,,"COc1cc(OC)nc(C(=O)N2CC/C(=C\C#Cc3cccc(Cl)c3)C(C)(C)C2)n1 [Example 166, {(4E)-4-[3-(3-chlorophenyl)prop-2-yn-1-ylidene]-3,3-dimethylpiperidin-1-yl}(4,6-dimethoxypyrimidin-2-yl)methanone]"
1.01 nM,,,,"CCOC(=O)N1CC/C(=C\C#Cc2cc(Cl)ccn2)C(C)(C)C1 [Example 18, ethyl (4E)-4-[3-(4-chloropyridin-2-yl)prop-2-yn-1-ylidene]-3,3-dimethylpiperidine-1-carboxylate]"
8.05 nM,49.7 nM,2.9,,"CC1(C)CN(C(=O)c2cccc(Cl)c2)CC/C1=C\C#Cc1cccc(CO)c1 [Example 119, (3-chlorophenyl){(4E)-4-{3-[3-(hydroxymethyl)phenyl]prop-2-yn-1-ylidene}-3,3-dimethylpiperidin-1-yl]methanone]"
4.02 nM,38.6 nM,5.5,,"CC1(C)CN(C(=O)c2cccc(Cl)c2)CC/C1=C\C#Cc1ccc(F)cc1 [Example 120, (3-chlorophenyl){(4E)-4-[3-(4-fluorophenyl)prop-2-yn-1-ylidene]-3,3-dimethylpiperidin-1-yl}methanone]"
,268 nM,2.1,,"COc1cccc(C(=O)N2CC/C(=C\C#Cc3cccc(Cl)c3)C(C)(C)C2)c1 [Example 137, {(4E)-4-[3-(3-chlorophenyl)prop-2-yn-1-ylidene]-3,3-dimethylpiperidin-1-yl}(3-methoxyphenyl)methanone]"
82.9 nM,,,,"COC(=O)N1CC/C(=C\C#Cc2nccc(C)n2)C1(C)C [Example 64, methyl (3E)-2,2-dimethyl-3-[3-(4-methylpyrimidin-2-yl)prop-2-yn-1-ylidene]pyrrolidine-1-carboxylate]"
1.47 nM,,,,"CCOC(=O)N1CC/C(=C\C#Cc2cccc(C)n2)C(C)(C)C1 [Example 3, ethyl (4E)-3,3-dimethyl-4-[3-(6-methylpyridin-2-yl)prop-2-yn-1-ylidene]piperidine-1-carboxylate]"
,115 nM,3.4,,"CC1(C)CN(C(=O)c2cccc(O)c2)CC/C1=C\C#Cc1cccc(Cl)c1 [Example 126, {(4E)-4-[3-(3-chlorophenyl)prop-2-yn-1-ylidene]-3,3-dimethylpiperidin-1-yl}(3-hydroxyphenyl)methanone]"
1.6 nM,52.8 nM,2.14,,"CC1(C)CN(C(=O)c2cccc(Cl)c2)CC/C1=C\C#Cc1cccc(C#N)c1 [Example 116, 3-{(3E)-3-[1-(3-chlorobenzoyl)-3,3-dimethylpiperidin-4-ylidene]prop-1-yn-1-yl}benzonitrile]"
29.8 nM,,,,"CCOC(=O)N1CC/C(=C\C#Cc2cc(C#N)ccn2)C1(C)C [Example 73, ethyl (3E)-3-[3-(4-cyanopyridin-2-yl)prop-2-yn-1-ylidene]-2,2-dimethylpyrrolidine-1-carboxylate]"
637 nM,291 nM,2.3,,"Cc1cc(C(=O)N2CC/C(=C\C#Cc3cc(F)cc(C#N)c3)C(C)(C)C2)c(C)o1 [Example 200, 3-[(3E)-3-{1-[(2,5-dimethylfuran-3-yl)carbonyl]-3,3-dimethylpiperidin-4-ylidene}prop-1-yn-1-yl]-5-fluorobenzonitrile]"
7.35 nM,224 nM,3.9,,"CC1(C)CN(C(=O)c2cccc(Cl)c2)CC/C1=C\C#Cc1cccc(O)c1 [Example 191, (3-chlorophenyl){(4E)-4-[3-(3-hydroxyphenyl)prop-2-yn-1-ylidene]-3,3-dimethylpiperidin-1-yl}methanone]"
